Reference: patent US20260284030A1, “METHODS OF TREATING HEART FAILURE” (THE CHILDREN'S MEDICAL CENTER CORPORATION, priority 2022, published 2026)

Legend:
DBA/1 J mice with CIA [1] = assay: Collagen induced arthritis (CIA) model, arthritis severity scoring; assay type: in vivo, mouse; conditions: for arthritis score: CIA mice, 10 mg/kg oral gavage once daily from day 30, n=8
Excerpt: (§1) DBA/1 J mice were purchased from Jackson Laboratory. All mice were kept specific pathogen free. Experimental protocols were approved by the Institutional Animal Care and Use Committee of Boston Children's Hospital (Protocol number: 20-01-4096R). To conduct a time-course study investigating onset and persistence of the cardiac dysfunction in DBA/1 J, the following groups were studied: DBA/1 J with CIA, DBA/1 J age-matched wild type, DBA/1 J with CIA treated with PAD4 inhibitor, DBA/1 J with CIA treated with 0.5% Methylcellulose (vehicle of the PAD4 inhibitor). The PAD4 specific inhibitor JBI-589 was provided by Jubilant Therapeutics (JBI-589, (R)-(3-aminopiperidin-1-yl)(2-(1-(4-fluorobenzyl)-1H-indol-2-yl)-3-methylimidazo[1,2-a]pyridin-7-yl)methanone). Mice received JBI-589 at a dose of 10 mg/kg via oral gavage for 26 consecutive days. JBI-589 was given in suspension formulation prepared using Tween-80 and 0.5% methyl cellulose. For the PAD4 inhibitor trial, mice were paired depending on their RA severity score and randomly allocated to treatment or control group. All recurring events including animal scoring and administration of inhibitor was done at similar times during the day. All groups were age and sex matched and were fed ad libitum with free access to water. All procedures conform with the NIH Guide for the Care and Use of Laboratory Animals. Experimental protocols were approved by the Institutional Animal Care and Use Committee of Boston Children's Hospital (Protocol number: 20-01-4096R).
DBA/1 J mice aged 8-9 weeks were immunized with an emulsion of 50 μl CFA (Chondrex, Inc.; Catalog no. 7023) and 50 μl of bovine type II collagen (Chondrex, Inc.; catalog no. 20012) injected intra-dermally into the base of the tail on day 0. On day 21, a booster immunization of type II collagen with Freund's incomplete adjuvant (IFA) (catalog no. 7002; Chondrex) was administered intra-dermally at a site proximal to the first injection site. Mice were assessed for development of arthritis using the semi-quantitative, mouse arthritis scoring system provided by Chondrex (chondrex.com). […]

DBA/1 J mice with CIA [2] = assay: Echocardiography of LV function and geometry in CIA mice; assay type: in vivo, mouse; conditions: n=8
Excerpt: as §1, with “All procedures conform with the NIH Guide for the Care and Use of Laboratory Animals. Experimental protocols were approved by the Institutional Animal Care and Use Committee of Boston Children's Hospital (Protocol number: 20-01-4096R).” left out
B-Mode, M-mode, and Doppler echocardiography were performed in DBA/1 J mice with CIA, DBA/1 J mice with CIA treated with PAD4 inhibitor or saline administration and age-matched DBA/1 J mice at day 0, day 25, day 45 and day 56 for time-course analysis of cardiac function. […] Body temperature was regulated through a heat pad and heart rate measured with an electrocardiogram, both were kept consistent between experimental groups (37° Celsius and 400-500 bpm). Echocardiography images were recorded using a Vevo-3100 imaging system with a 25-55-MHz linear probe (MX550D; VisualSonics, Toronto, Canada). Percentage of ejection fraction was calculated in parasternal long-axis view. M-mode was measured at the papillary muscle level in the short-axis view. […]

DBA/1 J mice with CIA [3] = assay: Immunostaining of LV cryosections (Collagen I, Ly6G/H3Cit, VWF, TGF-β, alpha smooth muscle actin); assay type: in vivo, mouse
Excerpt: as §1
Cryosections of 8-μm were fixed in 4% paraformaldehyde, permeabilized with 0.1% Triton, blocked in 3% BSA, and incubated overnight at 4° C. with the following primary antibodies: Anti-Collagen I (Abcam; ab21286); anti-Ly6G (clone 1A8; BioLegend); anti-H3Cit (Abcam; ab5103); anti-CD31 (BD Pharmingen; 553370); anti-VWF (DakoCytomation; P0226); anti-CD42b (Emfret; M040-0); anti-CD45 (Abcam; ab154885); anti-TGF beta (Abcam; ab66043); anti-alpha smooth muscle actin (Abcam; ab5694), and anti-CD68 (Abcam; ab53444). […]

DBA/1 J mice with CIA [4] = assay: Peripheral blood counts (circulating neutrophils); assay type: in vivo, mouse; conditions: any timepoint
Excerpt: as §1, with “All groups were age and sex matched and were fed ad libitum with free access to water. All procedures conform with the NIH Guide for the Care and Use of Laboratory Animals. Experimental protocols were approved by the Institutional Animal Care and Use Committee of Boston Children's Hospital (Protocol number: 20-01-4096R).” left out
Blood was collected from anesthetized mice via the retroorbital sinus into EDTA-coated capillary tubes and was analyzed by a Hemavet 950FS (Drew Scientific) for complete blood counts. […]

NET formation = assay: Neutrophil isolation and NETosis assay; assay type: in vivo, mouse; conditions: CIA mice; n=4; p=0.03
Excerpt: as §1, with “Animals. […]” for “Animals. Experimental protocols were approved by the Institutional Animal Care and Use Committee of Boston Children's Hospital (Protocol number: 20-01-4096R).”

Body weight of CIA mice = assay type: in vivo, mouse; conditions: day 56, n=8
Excerpt: as §1, with “Animals. […]” for “Animals. Experimental protocols were approved by the Institutional Animal Care and Use Committee of Boston Children's Hospital (Protocol number: 20-01-4096R).”

[5] = system: arthritis in a mouse model; conditions: prophylactic treatment; cited from earlier work
[6] = system: primary tumor and metastasis; conditions: cancer; cited from earlier work

## Cc1c(-c2cc3ccccc3n2Cc2ccc(F)cc2)nc2cc(C(=O)N3CCC[C@@H](N)C3)ccn12 [JBI-589, (R)-(3-aminopiperidin-1-yl)(2-(1-(4-fluorobenzyl)-1H-indol-2-yl)-3-methylimidazo[1,2-a]pyridin-7-yl)methanone]
DBA/1 J mice with CIA [1]; Day 36
  arthritis score: 5±0.8
DBA/1 J mice with CIA [1]; day 44, median (quartiles)
  arthritis score: 9 (7-11)
DBA/1 J mice with CIA [1]; twice daily regime (unpublished data)
  effect on RA (arthritis): significantly inhibits RA
DBA/1 J mice with CIA [2]; CIA mice treated 26 consecutive days, 10 mg/kg once daily oral
  diastolic function as reflected by the E/A ratio: comparable to healthy mice
DBA/1 J mice with CIA [2]; CIA mice treated 26 consecutive days, 10 mg/kg once daily oral, p<0.0001
  E/A ratio, higher than the placebo CIA group: 40%
DBA/1 J mice with CIA [2]; CIA mice treated 26 days, p=0.09
  systolic left ventricular function vs vehicle: no difference
DBA/1 J mice with CIA [3]; CIA mice treated 26 days, n=5, p=0.02
  collagen type 1 deposition in the LV, lower than the vehicle treated control: 5 times
DBA/1 J mice with CIA [3]; CIA mice, n=5, p=0.02
  myofibroblast concentration (alpha-smooth-muscle actin): reduced
DBA/1 J mice with CIA [3]; CIA mice, n=6, p=0.003
  deposition of TGF-β in heart tissue: reduced
DBA/1 J mice with CIA [4]
  number of circulating neutrophils vs vehicle: no difference
NET formation
  NET formation: reduced
Body weight of CIA mice
  body weight (health parameter): improved
[5]
  effect on arthritis: alleviates arthritis
[6]
  neutrophil recruitment: blocking neutrophil recruitment into the primary tumor and metastasis
